Experimental data as given in patent publication US20120121591A1 (priority 2009, published 2012).
Like-named read-outs stand apart in the source and are kept apart here.

Assays:
Format in all cases: cell-based
[1] = system: IFN-g secretion from T cells in human whole blood
[2] = system: IL-2 secretion from T cells in human whole blood; conditions: read-out: WB (IL-2) IC50 (nM, Avg)
hKv1.3 = hKv1.3 (Homo sapiens, UniProt P22001); assay: cell-based; conditions: Kv1.3 (IWQ) IC50 (nM, Avg)
[3] = read-out: WB (IFNg) IC50 (nM, Avg)
[4] = read-out: WB (IFNg) IC5- (nM, Avg)

hKv1.3, sequence (P22001 whole entry): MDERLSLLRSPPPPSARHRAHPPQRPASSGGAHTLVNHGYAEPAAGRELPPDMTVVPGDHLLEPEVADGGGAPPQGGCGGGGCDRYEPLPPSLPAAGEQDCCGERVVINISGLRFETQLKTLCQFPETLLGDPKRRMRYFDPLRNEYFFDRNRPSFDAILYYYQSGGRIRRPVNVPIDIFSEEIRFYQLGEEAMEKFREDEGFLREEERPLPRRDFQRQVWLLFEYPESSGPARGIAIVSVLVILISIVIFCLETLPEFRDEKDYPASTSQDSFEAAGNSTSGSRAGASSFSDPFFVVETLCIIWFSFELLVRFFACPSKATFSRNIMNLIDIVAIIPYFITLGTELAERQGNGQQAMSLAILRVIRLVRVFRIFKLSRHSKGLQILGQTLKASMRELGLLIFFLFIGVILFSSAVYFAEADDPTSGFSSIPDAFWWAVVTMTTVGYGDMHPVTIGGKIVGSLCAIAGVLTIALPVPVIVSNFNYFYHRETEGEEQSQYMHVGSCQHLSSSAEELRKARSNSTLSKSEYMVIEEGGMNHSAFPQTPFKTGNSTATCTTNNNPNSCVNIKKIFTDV

SMILES | IC50 [1, 3] | IC50 [2] | IC50 (hKv1.3) | IC50 [1, 4]
CC[C@H](C)[C@@H]1NC(=O)[C@@H](NC(=O)[C@H](CO)NC(=O)[C@@H](N)CCCNC(=N)N)CSSC[C@@H](C(N)=O)NC(=O)[C@H]([C@@H](C)O)NC(=O)CNC(=O)[C@@H]2CSSC[C@@H]3NC(=O)[C@H](CCCCN)NC(=O)[C@H](Cc4ccccc4)NC(=O)[C@H](C)NC(=O)[C@H]([C@@H](C)O)NC(=O)[C@H](CSSC[C@H](NC(=O)[C@H](Cc4ccccc4)NC(=O)[C@H](CO)NC(=O)[C@H](CC(C)C)NC(=O)[C@H](CCCNC(=N)N)NC(=O)[C@H](Cc4ccc(O)cc4)NC(=O)[C@H](CCCCN)NC(=O)[C@H](CC4CCCCC4)NC(=O)[C@H](CO)NC(=O)[C@H](Cc4c[nH]cn4)NC(=O)[C@H](CCCCN)NC3=O)C(=O)N[C@@H](CCCNC(=N)N)C(=O)N[C@@H](CCCCN)C(=O)N[C@@H]([C@@H](C)O)C(=O)N2)NC(=O)[C@H](CCCNC(=N)N)NC(=O)[C@H](CO)NC(=O)[C@H](CCCCN)NC(=O)[C@@H]2CCCN2C(=O)[C@H]([C@@H](C)CC)NC(=O)[C@H]([C@@H](C)O)NC(=O)[C@H](CC(=O)O)NC1=O [[Lys16, Cha21]ShK-amide] | 1.32 nM | 1.74 nM | 0.499 nM | –
CC[C@H](C)[C@@H]1NC(=O)[C@@H](NC(=O)[C@H](CO)NC(=O)[C@@H](N)CCC(=O)O)CSSC[C@@H](C(=O)O)NC(=O)[C@H]([C@@H](C)O)NC(=O)CNC(=O)[C@@H]2CSSC[C@@H]3NC(=O)[C@H](CCC(N)=O)NC(=O)[C@H](Cc4ccccc4)NC(=O)[C@H](C)NC(=O)[C@H]([C@@H](C)O)NC(=O)[C@H](CSSC[C@H](NC(=O)[C@H](Cc4ccccc4)NC(=O)[C@H](CO)NC(=O)[C@H](CC(C)C)NC(=O)[C@H](CCCNC(=N)N)NC(=O)[C@H](Cc4ccc(O)cc4)NC(=O)[C@H](CCCCN)NC(=O)[C@H](CCSC)NC(=O)[C@H](CO)NC(=O)[C@H](Cc4c[nH]cn4)NC(=O)[C@H](CCCCN)NC3=O)C(=O)N[C@@H](CCCNC(=N)N)C(=O)N[C@@H](CCCCN)C(=O)N[C@@H]([C@@H](C)O)C(=O)N2)NC(=O)[C@H](CCCNC(=N)N)NC(=O)[C@H](CO)NC(=O)[C@H](CCCCN)NC(=O)[C@@H]2CCCN2C(=O)[C@H]([C@@H](C)CC)NC(=O)[C@H]([C@@H](C)O)NC(=O)[C@H](CC(=O)O)NC1=O [[Glu1]ShK] | – | 0.213 nM | 0.144 nM | 0.249 nM
CCCC[C@@H]1NC(=O)[C@H](CO)NC(=O)[C@H](Cc2c[nH]cn2)NC(=O)[C@H](CCCCN)NC(=O)[C@@H]2CSSC[C@@H]3NC(=O)[C@H]([C@@H](C)O)NC(=O)[C@H](CCCCN)NC(=O)[C@H](CCCNC(=N)N)NC(=O)[C@H](CSSC[C@H](NC(=O)[C@H](CCCNC(=N)N)NC(=O)[C@H](CCC(=O)O)NC(=O)[C@H](CCCCN)NC(=O)[C@@H]4CCCN4C(=O)[C@H]([C@@H](C)CC)NC(=O)[C@H]([C@@H](C)O)NC(=O)[C@H](CC(=O)O)NC(=O)[C@H]([C@@H](C)CC)NC(=O)[C@@H](NC(=O)[C@H](CO)NC(=O)[C@@H](N)CCCNC(=N)N)CSSC[C@@H](C(N)=O)NC(=O)[C@H]([C@@H](C)O)NC(=O)CNC3=O)C(=O)N[C@@H]([C@@H](C)O)C(=O)N[C@@H](C)C(=O)N[C@@H](Cc3ccccc3)C(=O)N[C@@H](CCCCN)C(=O)N2)NC(=O)[C@H](Cc2ccccc2)NC(=O)[C@H](CO)NC(=O)[C@H](CC(C)C)NC(=O)[C@H](CCCNC(=N)N)NC(=O)[C@H](Cc2ccc(O)cc2)NC(=O)[C@H](CCCCN)NC1=O [[Glu10,Lys16,Nle21]ShK-amide] | 1.26 nM | 0.776 nM | 0.127 nM | –
CC[C@H](C)[C@@H]1NC(=O)[C@@H](NC(=O)[C@H](CO)NC(=O)[C@@H](N)CCCNC(=N)N)CSSC[C@@H](C(=O)O)NC(=O)[C@H]([C@@H](C)O)NC(=O)CNC(=O)[C@@H]2CSSC[C@@H]3NC(=O)[C@H](CCC(N)=O)NC(=O)[C@H](Cc4ccccc4)NC(=O)[C@H](C)NC(=O)[C@H]([C@@H](C)O)NC(=O)[C@H](CSSC[C@H](NC(=O)[C@H](Cc4ccccc4)NC(=O)[C@H](CO)NC(=O)[C@H](CC(C)C)NC(=O)[C@H](CCCNC(=N)N)NC(=O)[C@H](Cc4ccc(O)cc4)NC(=O)[C@H](CCCCN)NC(=O)[C@H](CCSC)NC(=O)[C@H](CO)NC(=O)[C@H](CCCNC(=N)N)NC(=O)[C@H](CCCCN)NC3=O)C(=O)N[C@@H](CCCNC(=N)N)C(=O)N[C@@H](CCCCN)C(=O)N[C@@H]([C@@H](C)O)C(=O)N2)NC(=O)[C@H](CCCNC(=N)N)NC(=O)[C@H](CO)NC(=O)[C@H](CCCCN)NC(=O)[C@@H]2CCCN2C(=O)[C@H]([C@@H](C)CC)NC(=O)[C@H]([C@@H](C)O)NC(=O)[C@H](CC(=O)O)NC1=O [[Arg19]ShK] | 0.116 nM | 0.039 nM | 0.1 nM | –
CC[C@H](C)[C@@H]1NC(=O)[C@@H](NC(=O)[C@H](CCC(=O)O)NC(=O)[C@@H](N)CCCNC(=N)N)CSSC[C@@H](C(=O)O)NC(=O)[C@H]([C@@H](C)O)NC(=O)CNC(=O)[C@@H]2CSSC[C@@H]3NC(=O)[C@H](CCC(N)=O)NC(=O)[C@H](Cc4ccccc4)NC(=O)[C@H](C)NC(=O)[C@H]([C@@H](C)O)NC(=O)[C@H](CSSC[C@H](NC(=O)[C@H](Cc4ccccc4)NC(=O)[C@H](CO)NC(=O)[C@H](CC(C)C)NC(=O)[C@H](CCCNC(=N)N)NC(=O)[C@H](Cc4ccc(O)cc4)NC(=O)[C@H](CCCCN)NC(=O)[C@H](CCSC)NC(=O)[C@H](CO)NC(=O)[C@H](Cc4c[nH]cn4)NC(=O)[C@H](CCCCN)NC3=O)C(=O)N[C@@H](CCCNC(=N)N)C(=O)N[C@@H](CCCCN)C(=O)N[C@@H]([C@@H](C)O)C(=O)N2)NC(=O)[C@H](CCCNC(=N)N)NC(=O)[C@H](CO)NC(=O)[C@H](CCCCN)NC(=O)[C@@H]2CCCN2C(=O)[C@H]([C@@H](C)CC)NC(=O)[C@H]([C@@H](C)O)NC(=O)[C@H](CC(=O)O)NC1=O [[Glu2]ShK] | – | 0.029 nM | 0.111 nM | 0.039 nM
CC[C@H](C)[C@@H]1NC(=O)[C@@H](NC(=O)[C@H](CO)NC(=O)[C@@H](N)CCCNC(=N)N)CSSC[C@@H](C(=O)O)NC(=O)[C@H]([C@@H](C)O)NC(=O)CNC(=O)[C@@H]2CSSC[C@@H]3NC(=O)[C@H](CCCCN)NC(=O)[C@H](Cc4ccccc4)NC(=O)[C@H](C)NC(=O)[C@H]([C@@H](C)O)NC(=O)[C@H](CSSC[C@H](NC(=O)[C@H](Cc4ccccc4)NC(=O)[C@H](CO)NC(=O)[C@H](CC(C)C)NC(=O)[C@H](CCCNC(=N)N)NC(=O)[C@H](Cc4ccc(O)cc4)NC(=O)[C@H](CCCCN)NC(=O)[C@H](CCSC)NC(=O)[C@H](CO)NC(=O)[C@H](Cc4c[nH]cn4)NC(=O)[C@H](CCCCN)NC3=O)C(=O)N[C@@H](CCCNC(=N)N)C(=O)N[C@@H](CCC(=O)O)C(=O)N[C@@H]([C@@H](C)O)C(=O)N2)NC(=O)[C@H](CCCNC(=N)N)NC(=O)[C@H](CO)NC(=O)[C@H](CCCCN)NC(=O)[C@@H]2CCCN2C(=O)[C@H]([C@@H](C)CC)NC(=O)[C@H]([C@@H](C)O)NC(=O)[C@H](CC(=O)O)NC1=O [[Lys16, Glu30]ShK] | 0.081 nM | 0.032 nM | 0.073 nM | –
CC[C@H](C)[C@@H]1NC(=O)[C@@H](NC(=O)[C@H](CO)NC(=O)[C@@H](N)CCCNC(=N)N)CSSC[C@@H](C(=O)O)NC(=O)[C@H]([C@@H](C)O)NC(=O)CNC(=O)[C@@H]2CSSC[C@@H]3NC(=O)[C@H](CCC(N)=O)NC(=O)[C@H](Cc4ccccc4)NC(=O)[C@H](C)NC(=O)[C@H]([C@@H](C)O)NC(=O)[C@H](CSSC[C@H](NC(=O)[C@H](Cc4ccccc4)NC(=O)[C@H](CO)NC(=O)[C@H](CC(C)C)NC(=O)[C@H](CCCNC(=N)N)NC(=O)[C@H](Cc4ccc(O)cc4)NC(=O)[C@H](CCCCN)NC(=O)[C@H](CCSC)NC(=O)[C@H](CO)NC(=O)[C@H](Cc4c[nH]cn4)NC(=O)[C@H](CCCCN)NC3=O)C(=O)N[C@@H](CCC(=O)O)C(=O)N[C@@H](CCCCN)C(=O)N[C@@H]([C@@H](C)O)C(=O)N2)NC(=O)[C@H](CCCNC(=N)N)NC(=O)[C@H](CO)NC(=O)[C@H](CCCCN)NC(=O)[C@@H]2CCCN2C(=O)[C@H]([C@@H](C)CC)NC(=O)[C@H]([C@@H](C)O)NC(=O)[C@H](CC(=O)O)NC1=O [[Glu29]ShK] | – | 0.73 nM | 0.142 nM | 1.96 nM
CC[C@H](C)[C@@H]1NC(=O)[C@H]([C@@H](C)O)NC(=O)[C@H](CC(=O)O)NC(=O)[C@H](CCC(=O)O)NC(=O)[C@@H](NC(=O)[C@H](CO)NC(=O)[C@@H](N)CCCNC(=N)N)CSSC[C@@H](C(N)=O)NC(=O)[C@H]([C@@H](C)O)NC(=O)CNC(=O)[C@@H]2CSSC[C@@H]3NC(=O)[C@H](CCCCN)NC(=O)[C@H](Cc4ccccc4)NC(=O)[C@H](C)NC(=O)[C@H]([C@@H](C)O)NC(=O)[C@H](CSSC[C@H](NC(=O)[C@H](Cc4ccccc4)NC(=O)[C@H](Cc4cccc5ccccc45)NC(=O)[C@H](CC(C)C)NC(=O)[C@H](CCCNC(=N)N)NC(=O)[C@H](Cc4ccc(O)cc4)NC(=O)[C@H](CCCCN)NC(=O)[C@H](CCSC)NC(=O)[C@H](CO)NC(=O)[C@H](Cc4c[nH]cn4)NC(=O)[C@H](CCCCN)NC3=O)C(=O)N[C@@H](CCCCN)C(=O)N[C@@H](CCCNC(=N)N)C(=O)N[C@@H]([C@@H](C)O)C(=O)N2)NC(=O)[C@H](CCCNC(=N)N)NC(=O)[C@H](CO)NC(=O)[C@H](CCCCN)NC(=O)[C@@H]2CCCN2C1=O [[Glu4; Lys16,29;1-Na126;Arg30]ShK-amide] | 0.598 nM | 0.712 nM | 0.384 nM | –
